{"source": "paper PMC3692431", "about": "“Anticonvulsant Activity of B2, an Adenosine Analog, on Chemical Convulsant-Induced Seizures” (PLoS ONE, 2013)", "key": {"4-AP-induced seizures": {"tested_on": "4-AP-induced seizures", "assay": "4-AP-induced seizures in mice", "type": "in vivo", "settings": "80 mg/kg, positive control, 4-AP 13 mg/kg", "procedure": "(§1) KA was dissolved in saline and the pH was adjusted to neutrality. The final concentration of KA was 0.7 µg/µl, and the convulsant dose was 1 µl (i.c.v.). […] The selective adenosine receptor antagonist DPCPX or SCH58261 was administered (i.p.) 5 min before administration of B2 or vehicle.\n(§2) Mice were injected with B2 (1.25, 5, 20 mg/kg), carbamazepine (80 mg/kg) or vehicle 20 min before administration of strychnine (1.5 mg/kg) or 4-AP (13 mg/kg). […] The time of latency to seizure onset and mortality rate were recorded."}, "[1]": {"tested_on": "strychnine-induced seizures", "assay": "Strychnine-induced seizures in mice", "type": "in vivo", "settings": "80 mg/kg, positive control; strychnine 1.5 mg/kg i.p.", "procedure": "as §1, §2"}, "PTZ-induced seizures [2]": {"tested_on": "PTZ-induced seizures", "assay": "PTZ-induced seizures with adenosine receptor antagonist pretreatment", "type": "in vivo, mice", "settings": "PTZ 85 mg/kg", "procedure": "as §1\nTwenty min later, mice were admdinistered with PTZ (85 mg/kg)."}, "KA-induced seizures": {"tested_on": "KA-induced seizures", "assay": "KA-induced seizures in mice", "type": "in vivo", "settings": "10 mg/kg, positive control, KA 0.7 µg i.c.v.", "procedure": "as §1\nThe left lateral ventricle (0.6 mm posterior, 1.9 mm lateral, and 2.1 mm ventral to bregma) was cannulated as described. After a 7-day recovery period, mice were injected with either B2 (1.25, 5, 20 mg/kg) or vehicle. Twenty minutes later, an intracerebroventricular injection of KA (0.7 µg/µl, 1 µl) was administered without anesthesia. The animals were then observed for a minimum of 60 min. Seizure severity was determined according to the scoring system described by Racine. At the end of the experiment, cannulae placement was verified."}, "PTZ-induced seizures [3]": {"tested_on": "PTZ-induced seizures", "assay": "PTZ-induced seizures in mice", "type": "in vivo", "settings": "10 mg/kg i.p.; PTZ 85 mg/kg s.c.; P<0.001", "procedure": "The latency of seizure onset, number of seizures, and mortality rate was recorded for the picrotoxin-injected mice. For the PTZ-injected mice, we recorded the latency of seizure onset, number of seizures, and presence of clonic seizures."}}, "data": [{"compound": "NC(=O)N1c2ccccc2C=Cc2ccccc21", "note": "[Carbamazepine, carbamazepine, reference compound]", "values": [{"measurement": "effect on latency to seizure onset", "setting": "4-AP-induced seizures; P<0.001", "result": "significantly prolonged"}, {"measurement": "effect on mortality rate", "setting": "4-AP-induced seizures; P<0.05", "result": "reduced the mortality rate"}, {"measurement": "protection against strychnine-induced seizures", "setting": "[1]", "result": "complete protection"}]}, {"compound": "CCCn1c(=O)c2[nH]c(C3CCCC3)nc2n(CCC)c1=O", "note": "[DPCPX, 8-Cyclopentyl-1,3-dipropylxanthine]", "values": [{"measurement": "effect on onset time of seizure, antagonist alone", "setting": "PTZ-induced seizures [2]; DPCPX 0.3125–1.25 mg/kg i.p. alone", "result": "did not affect"}, {"measurement": "effect on the delaying effect of B2 on onset times of seizure", "setting": "PTZ-induced seizures [2]; DPCPX pretreatment 5 min before B2 5 mg/kg, P<0.05", "result": "significantly blocked"}]}, {"compound": "CN1C(=O)CN=C(c2ccccc2)c2cc(Cl)ccc21", "note": "[Diazepam, diazepam, reference compound]", "values": [{"measurement": "protection against KA-induced seizures", "setting": "KA-induced seizures", "result": "significant protection"}, {"measurement": "protection against PTZ-induced seizures", "setting": "PTZ-induced seizures [3]", "result": "completely protected"}]}, {"compound": "Nc1nc2c(cnn2CCc2ccccc2)c2nc(-c3ccco3)nn12", "note": "[SCH58261, 5-amino-7-(β-phenylethyl)-2-(2-furyl)-pyrazolo-[4,3-e]-1,2,4-triazolo[1,5-c]-pyrimidine]", "values": [{"measurement": "effect on onset time of seizure, antagonist alone", "setting": "PTZ-induced seizures [2]; SCH58261 0.08–1.25 mg/kg i.p. alone", "result": "did not affect"}, {"measurement": "effect on the delaying effect of B2 on seizure onset time", "setting": "PTZ-induced seizures [2]; SCH58261 pretreatment 5 min before B2 5 mg/kg", "result": "did not affect the delaying effect"}]}]}
